From paper PMC3664191 (Bioorganic & medicinal chemistry letters, 2013)

Legend:
Clk3 = Clk3 (Homo sapiens, UniProt P49761); details: cited from earlier work
[1] = target: dopamine transporter (DAT) (Homo sapiens, UniProt Q01959); assay: Ricerca LeadProfiling off-target screen; type: binding; details: read-out: inhibition or stimulation, dopamine transporter (DAT)
adrenergic α2A = target: T1, adrenergic α2A (Homo sapiens, UniProt P08913); assay: Ricerca LeadProfiling off-target screen; details: read-out: inhibition or stimulation, adrenergic α2A
T1 sequence (P08913 1-465): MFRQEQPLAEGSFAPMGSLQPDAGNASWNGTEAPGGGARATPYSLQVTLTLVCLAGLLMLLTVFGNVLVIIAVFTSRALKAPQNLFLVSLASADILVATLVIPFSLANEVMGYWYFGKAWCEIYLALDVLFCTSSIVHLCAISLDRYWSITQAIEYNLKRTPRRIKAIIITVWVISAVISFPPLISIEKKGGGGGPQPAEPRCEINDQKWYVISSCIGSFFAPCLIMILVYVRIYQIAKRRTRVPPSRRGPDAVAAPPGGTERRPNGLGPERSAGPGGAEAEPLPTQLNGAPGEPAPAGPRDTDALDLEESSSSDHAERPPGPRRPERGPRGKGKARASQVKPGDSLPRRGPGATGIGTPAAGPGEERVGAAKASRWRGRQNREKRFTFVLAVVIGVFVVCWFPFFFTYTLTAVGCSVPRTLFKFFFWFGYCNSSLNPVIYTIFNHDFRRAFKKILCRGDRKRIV

[2] = target: norepinephrine transporter (NET) (Homo sapiens, UniProt P23975); assay: Ricerca LeadProfiling off-target screen; type: binding; details: read-out: inhibition or stimulation, norepinephrine transporter (NET)
Chain of norepinephrine transporter (NET) (P23975 whole entry): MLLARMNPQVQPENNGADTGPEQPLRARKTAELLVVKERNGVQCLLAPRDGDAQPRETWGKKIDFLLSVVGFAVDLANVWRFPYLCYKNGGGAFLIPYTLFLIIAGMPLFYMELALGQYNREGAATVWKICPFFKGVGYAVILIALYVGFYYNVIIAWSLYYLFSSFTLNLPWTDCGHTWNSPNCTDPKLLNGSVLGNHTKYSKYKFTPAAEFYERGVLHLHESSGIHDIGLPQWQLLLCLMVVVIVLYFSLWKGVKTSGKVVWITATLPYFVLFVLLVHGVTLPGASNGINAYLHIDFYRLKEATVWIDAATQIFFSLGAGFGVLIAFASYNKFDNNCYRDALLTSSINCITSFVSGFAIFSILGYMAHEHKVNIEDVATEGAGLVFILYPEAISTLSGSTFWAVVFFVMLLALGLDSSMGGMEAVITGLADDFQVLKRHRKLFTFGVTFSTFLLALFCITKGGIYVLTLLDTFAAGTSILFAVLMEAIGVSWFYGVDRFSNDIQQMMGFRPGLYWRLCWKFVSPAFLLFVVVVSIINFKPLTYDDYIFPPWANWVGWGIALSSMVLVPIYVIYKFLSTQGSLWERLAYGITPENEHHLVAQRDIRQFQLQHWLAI

[3] = phosphate buffered saline (PBS) and assay media
Clk4 = Clk4 (Homo sapiens, UniProt Q9HAZ1); assay: Kinase Glo; type: biochemical; details: matrix library, Kinase Glo (Promega) assay, Figure 4
Chain of Clk4 (Q9HAZ1 whole entry, species assumed): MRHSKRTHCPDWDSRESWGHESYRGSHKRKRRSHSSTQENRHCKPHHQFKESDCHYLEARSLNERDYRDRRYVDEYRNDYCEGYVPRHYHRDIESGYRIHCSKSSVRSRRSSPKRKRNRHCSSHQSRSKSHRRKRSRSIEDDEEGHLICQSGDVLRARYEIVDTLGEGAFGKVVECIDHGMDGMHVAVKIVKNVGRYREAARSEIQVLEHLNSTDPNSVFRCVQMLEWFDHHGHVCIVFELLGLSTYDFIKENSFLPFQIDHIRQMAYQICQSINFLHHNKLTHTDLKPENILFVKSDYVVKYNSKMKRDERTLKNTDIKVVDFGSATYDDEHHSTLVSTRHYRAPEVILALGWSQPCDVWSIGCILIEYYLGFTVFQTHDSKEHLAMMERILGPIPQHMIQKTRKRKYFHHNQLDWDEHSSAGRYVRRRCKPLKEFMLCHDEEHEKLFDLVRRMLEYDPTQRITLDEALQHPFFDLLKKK

DRAK = assay: DiscoverRX KINOMEscan binding; details: 10 μM
CSNK1E = CSNK1E (Homo sapiens, UniProt P49674); assay: DiscoverRX KINOMEscan binding; details: read-out: % control CSNK1E
Chain of CSNK1E (P49674 whole entry): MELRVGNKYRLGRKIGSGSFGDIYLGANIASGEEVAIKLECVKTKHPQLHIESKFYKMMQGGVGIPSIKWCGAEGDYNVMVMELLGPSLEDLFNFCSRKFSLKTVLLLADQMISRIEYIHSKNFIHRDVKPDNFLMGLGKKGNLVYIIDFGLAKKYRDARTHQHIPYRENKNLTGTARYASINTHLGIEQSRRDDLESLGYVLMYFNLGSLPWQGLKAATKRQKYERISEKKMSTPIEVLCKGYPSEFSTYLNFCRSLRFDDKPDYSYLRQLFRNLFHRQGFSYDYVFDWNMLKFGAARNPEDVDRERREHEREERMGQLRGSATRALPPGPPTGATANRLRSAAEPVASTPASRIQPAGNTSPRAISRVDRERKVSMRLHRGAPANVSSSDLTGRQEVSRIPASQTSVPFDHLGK

Chain of Clk3 (P49761 whole entry): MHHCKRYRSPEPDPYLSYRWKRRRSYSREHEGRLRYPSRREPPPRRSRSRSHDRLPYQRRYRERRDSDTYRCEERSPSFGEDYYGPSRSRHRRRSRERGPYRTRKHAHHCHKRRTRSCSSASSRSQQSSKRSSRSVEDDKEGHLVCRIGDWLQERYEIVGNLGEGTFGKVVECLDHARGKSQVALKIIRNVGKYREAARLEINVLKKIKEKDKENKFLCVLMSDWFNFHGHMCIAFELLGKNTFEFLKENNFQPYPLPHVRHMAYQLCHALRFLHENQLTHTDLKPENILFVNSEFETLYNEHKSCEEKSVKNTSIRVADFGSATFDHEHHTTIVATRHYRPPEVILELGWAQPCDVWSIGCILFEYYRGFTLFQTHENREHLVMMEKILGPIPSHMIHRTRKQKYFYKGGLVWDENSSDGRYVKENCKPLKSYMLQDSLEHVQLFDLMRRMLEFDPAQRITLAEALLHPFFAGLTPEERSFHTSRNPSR
Chain of dopamine transporter (DAT) (Q01959 whole entry): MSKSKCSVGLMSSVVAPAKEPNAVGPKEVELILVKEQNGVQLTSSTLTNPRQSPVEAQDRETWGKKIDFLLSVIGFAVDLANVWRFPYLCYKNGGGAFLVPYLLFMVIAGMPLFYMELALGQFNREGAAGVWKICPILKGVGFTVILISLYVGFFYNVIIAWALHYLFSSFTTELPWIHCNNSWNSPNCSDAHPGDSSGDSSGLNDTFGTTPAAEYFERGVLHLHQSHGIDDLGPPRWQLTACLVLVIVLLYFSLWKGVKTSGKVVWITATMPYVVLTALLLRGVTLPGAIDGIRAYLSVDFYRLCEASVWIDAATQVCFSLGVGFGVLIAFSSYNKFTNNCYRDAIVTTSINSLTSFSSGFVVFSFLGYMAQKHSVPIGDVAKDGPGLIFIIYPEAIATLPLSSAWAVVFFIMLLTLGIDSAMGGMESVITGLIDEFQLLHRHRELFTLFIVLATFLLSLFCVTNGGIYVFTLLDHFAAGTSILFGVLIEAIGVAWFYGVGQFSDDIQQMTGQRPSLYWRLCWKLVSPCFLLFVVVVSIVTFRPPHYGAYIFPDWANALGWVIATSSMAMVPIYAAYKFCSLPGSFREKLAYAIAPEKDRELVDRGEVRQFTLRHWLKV

SMILES: CCN1/C(=C/C(C)=O)Sc2ccc(OC)cc21 [TG003]
- Clk3 activity (Clk3): inactive

SMILES: Clc1cc(Cl)cc(CNc2ncncc2-c2ccc3c(c2)OCO3)c1 [Compound 35]
- cell permeability (Cell permeability): moderately cell permeable
- inhibition at 10 µM [1]: > 50%
- inhibition at 10 µM (adrenergic α2A): > 50%
- plasma stability (Plasma stability, mouse): stable
- inhibition at 10 µM [2]: > 50%
- solubility [3]: limited
- plasma stability (Plasma stability, human): stable

SMILES: COc1cccc(-c2nccc(NCc3ccc(Cl)c(Cl)c3)n2)c1 [Compound C2]
- activity against Clk4 (Clk4): active

SMILES: Clc1ccc(CNc2nccc(-c3ccc4[nH]ncc4c3)n2)cc1Cl [Compound 22]
- % control DRAK (DRAK): < 10 % control
- remaining binding at 10 µM (CSNK1E): < 10%

SMILES: COc1ccc(-c2nccc(NCc3ccc(Cl)c(Cl)c3)n2)cc1 [Compound G2]
- activity against Clk4 (Clk4): active

SMILES: COc1ccc(-c2nccc(NCc3ccc(Cl)cc3)n2)cc1 [Compound G4]
- activity against Clk4 (Clk4): active

SMILES: O=C1NC(Nc2ccccc2)=N/C1=C\c1ccc2c(c1)OCO2 [Leucettine L41]
- IC50 (Clk3; read-out: Clk3 IC50): 4.5 µM

SMILES: Clc1ccc(CNc2ccnc(-c3ccc4c(c3)OCO4)n2)cc1 [Compound A4]
- activity against Clk4 (Clk4): active

SMILES: Clc1ccc(CNc2ccnc(-c3ccc4c(c3)OCO4)n2)cc1Cl [Compound A2]
- activity against Clk4 (Clk4): active
